These results are taken from PMC10067601, “Identification of a peptide ligand for human ALDH3A1 through peptide phage display: Prediction and characterization of protein interaction sites and inhibition of ALDH3A1 enzymatic activity” (Frontiers in Molecular Biosciences, 2023).

This assay has as its target T1, human recombinant ALDH3A1 (Homo sapiens, UniProt P30838).
T1 construct: 6xHis (C); made in house; host or cells: E. coli, with chaperone co-expression (pG-KJE8 plasmid)
T1 sequence (P30838 1-453): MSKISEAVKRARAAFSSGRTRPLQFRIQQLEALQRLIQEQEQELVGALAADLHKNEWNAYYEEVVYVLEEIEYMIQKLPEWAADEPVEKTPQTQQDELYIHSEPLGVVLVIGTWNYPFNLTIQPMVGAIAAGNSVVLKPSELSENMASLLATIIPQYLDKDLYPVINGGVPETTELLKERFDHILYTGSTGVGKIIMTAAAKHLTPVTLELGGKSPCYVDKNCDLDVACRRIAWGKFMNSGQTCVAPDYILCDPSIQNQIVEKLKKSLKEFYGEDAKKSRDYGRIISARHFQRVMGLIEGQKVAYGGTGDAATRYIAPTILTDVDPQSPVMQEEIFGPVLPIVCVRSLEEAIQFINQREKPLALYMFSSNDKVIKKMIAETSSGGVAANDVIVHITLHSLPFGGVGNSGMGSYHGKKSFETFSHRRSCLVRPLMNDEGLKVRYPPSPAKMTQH
The assay can be described thus: ALDH3A1 enzymatic assay, benzaldehyde oxidation. The assay is classed as biochemical. The conditions noted are these: for Enzymatic Activity, AVERAGE %: mean of triplicates, STDEV % in r34. The method, then: The ability of ALDH3A1 to oxidize benzaldehyde in the presence of P1 was estimated by monitoring the production of NADH as described earlier with minor modifications ([Voulgaridou et al., 2013]). Human recombinant ALDH3A1 was combined with P1 and diluted in Milli-Q water, at 1:1,000. The final reaction was placed in a 0.5 mL quartz cuvette containing 50 mM Tris-HCl pH 8.5, 50 mM 2-Mercaptoethanol, 1.5 mM […], 20 nM ALDH3A1, 20 μM P1, and 1 mM Benzaldehyde. The reaction was initiated by the addition of the benzaldehyde substrate and was monitored at 340 nm for 5 min using a spectrophotometer (Libra S22, Biochrom Ltd, Cambridge, United Kingdom). In the case of CB29, the final reaction contained 40 μM CB29. Enzymatic activity was calculated as dOD/dT∗molarextinctioncoeiffcient∗pathcorrection∗enzyme^′sconcentrationinfinalreaction where, dT = minutes, molar extinction coefficient = 6220 M^-1/cm, path correction = 1 cm.
All experiments were conducted in triplicates and presented as % of the control’s enzymatic activity. As a control, the final reaction contained the respective Milli-Q water volume without P1 or CB29.
At least three independent experiments were performed for each condition tested. The values are expressed as the mean ± standard deviation (SD). Statistical analysis was performed with Graph Pad Prism software (version 9.4.1) (Graph Pad Inc., La Jolla, CA, United States). For all assays, statistical differences between groups were evaluated either by Student’s t-test or ANOVA, for multiple comparisons, followed by Dunnett’s or Tukey’s test. A level of p < 0.01 was considered statistically significant.

[1] abbreviates: 20 μM P1 (n = 4) or 40 μM CB29 (n = 3).

Entries after “also recorded” stand apart in the source; their conditions may differ.

On to “WPTYVSPFRSPP [P1, …, prevailing 12-mer phage display peptide, synthesised by Genecust]”, for which, under “20 μM P1 (4 experiments) or 40 μM CB29 (3 experiments), 1 mM benzaldehyde, 20 nM ALDH3A1, pH 8.5, 340 nm, 5 min”, the “Enzymatic activity, % of control, AVERAGE of experiments” value is 53.6795%. Moreover, under setting [1], the “25% Percentile, % of control activity” value stood at 48.44. Moreover, the “75% Percentile, % of control activity” value under setting [1] is listed as 60.33. In addition, the “Lower 95% CI of mean, % of control activity” value under setting [1] is 43.07. Also, under setting [1], the “Maximum, % of control activity” value was determined as 63.01. For the same sequence, the “Mean, % of control activity” value under setting [1] turned out to be 53.68. Under setting [1], the “Median, % of control activity” value was found to be 52.27. Moreover, the “Minimum, % of control activity” value under setting [1] came out at 47.18. Besides, the “Upper 95% CI of mean, % of control activity” value under setting [1] was 64.29. The “Reduction in hALDH3A1 activity against benzaldehyde” value (20 μM P1, 20 nM ALDH3A1, 1 mM benzaldehyde, 50 mM Tris-HCl pH 8.5, 50 mM 2-mercaptoethanol, NADH at 340 nm, 5 min, vs control) is recorded as approximately 50%. For the same sequence, the “Enzymatic activity, % of control (Mean%)” value reads like this: (20 μM P1, P1 Experiment 1, mean of n = 3, 1 mM benzaldehyde, 20 nM ALDH3A1, pH 8.5, 340 nm) 52.2857%; (20 μM P1, P1 Experiment 2, mean of n = 3, 1 mM benzaldehyde, 20 nM ALDH3A1, pH 8.5, 340 nm) 63.0078%; (20 μM P1, fourth experiment line of Sheet6, mean of n = 3, 1 mM benzaldehyde, 20 nM ALDH3A1, pH 8.5, 340 nm) 47.1765%; (20 μM P1, third experiment line of Sheet6, mean of n = 3, 1 mM benzaldehyde, 20 nM ALDH3A1, pH 8.5, 340 nm) 52.2481%. For the setting “20 μM P1 vs 40 μM CB29, benzaldehyde”, the “Effectiveness of inhibition compared with CB29” value is reported as “comparable to the inhibition capacity of the known hALD3A1 inhibitor CB29; also recorded: comparable with the inhibition caused by the CB29 molecule”. Besides, the “95,00% CI of diff, control vs. compound” value (Dunnett's multiple comparisons, 20 μM P1 or 40 μM CB29) is reported as 37,24 to 55,40. Besides, the “Mean Diff, control vs. compound” value (Dunnett's multiple comparisons, 20 μM P1 or 40 μM CB29, % of control activity) amounted to 46.32. For the same sequence, the “Enzymatic Activity, AVERAGE %” value (Experiment 3, 20μM P1, % of control (control = 100)) was 52.2481% and the “Enzymatic Activity, AVERAGE %” value (Experiment 4, 20μM P1, % of control (control = 100)) is listed as 47.1765%. For the same sequence, the “Enzymatic Activity, AVERAGE of triplicates” value runs as follows: (Experiment 3, 20μM P1, mean of triplicates, STDEV in r31) 7.566 µmol/min/mg; (Experiment 4, 20μM P1, mean of triplicates, STDEV in r31) 9.945 µmol/min/mg; (P1 Experiment 1, 20 μM, mean of n = 3) 7.9584 µmol/min/mg; (P1 Experiment 2, 20 μM, mean of n = 3) 11.9878 µmol/min/mg.
